The values below come from PubChem BioAssay AID212 (DTP/NCI, 2004).

Several values for one entry are separate records, joined by “and”; a condition that tells them apart may be missing. Identical values can stand only once. Inconclusive results are not listed.

The subject of the experiment is BDF1 mice, colon carcinoma 38 sc, T/C %. Nature of the experiment: NCI In Vivo Anticancer Drug Screen. Data for tumor model Colon Carcinoma 38 (subcutaneous) in B6D2F1 (BDF1) mice. As to conditions: endpoint: median tumor weight (est.), higher = larger tumour. A digest of the protocol:
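Transplantable tumor in mice; compound-treated vs vehicle-dosed controls. Measured survival or tumor size; value = T ÷ C.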

[1] abbreviates: dose: 25.0 mg/kg/injection, schedule: Q07DX002 (ip), vehicle: saline.
[2] abbreviates: dose: 100.0 mg/kg/injection, schedule: Q07DX002 (ip), vehicle: saline.
Setting [3] is: dose: 12.5 mg/kg/injection, schedule: Q07DX002 (ip), vehicle: saline.
Where [4] appears, read: dose: 50.0 mg/kg/injection, schedule: Q07DX002 (ip), vehicle: saline.
Setting [5] is: dose: 5.0 mg/kg/injection, schedule: Q07DX002 (ip), vehicle: saline.
The mark [6] stands for this setting: dose: 10.0 mg/kg/injection, schedule: Q07DX002 (ip), vehicle: saline.

`CC(=O)Nc1ccc(/C=N/NC(N)=S)cc1`: the T/C reads like this: (dose: 100.0 mg/kg/injection, schedule: Q07DX002 (ip), vehicle: Klucel (hydroxypropylcellulose) (HPC)) 117 % of control and 98 % of control; (dose: 400.0 mg/kg/injection, schedule: Q07DX002 (ip), vehicle: Klucel (hydroxypropylcellulose) (HPC)) 98 % of control; (dose: 450.0 mg/kg/injection, schedule: Q07DX002 (ip), vehicle: saline with Tween-80) 86 % of control; (dose: 900.0 mg/kg/injection, schedule: Q07DX002 (ip), vehicle: saline with Tween-80) 57 % of control; (dose: 1800.0 mg/kg/injection, schedule: Q07DX002 (ip), vehicle: saline with Tween-80) 119 % of control.

`O=S(=O)(O)O.[NH-]C1CCCCC1[NH-].[Pt+2]` (stereo unspecified): the T/C is 56 % of control (dose: 0.31 mg/kg/injection, schedule: Q07DX002 (ip), vehicle: dextrose); 82 % of control (dose: 0.62 mg/kg/injection, schedule: Q07DX002 (ip), vehicle: dextrose); 80 % of control (dose: 0.63 mg/kg/injection, schedule: Q07DX002 (ip), vehicle: dextrose); 51 % of control (dose: 0.63 mg/kg/injection, schedule: Q07DX003 (ip), vehicle: dextrose); 41 % of control (dose: 1.25 mg/kg/injection, schedule: Q07DX002 (ip), vehicle: dextrose); 76 % of control (dose: 1.25 mg/kg/injection, schedule: Q07DX003 (ip), vehicle: dextrose). For the same compound, the T/C reads like this: (dose: 2.5 mg/kg/injection, schedule: Q07DX002 (ip), vehicle: dextrose) 19 % of control and 36 % of control; (dose: 5.0 mg/kg/injection, schedule: Q07DX002 (ip), vehicle: dextrose) 21 % of control; (dose: 5.0 mg/kg/injection, schedule: Q07DX003 (ip), vehicle: dextrose) 29 % of control; (dose: 10.0 mg/kg/injection, schedule: Q07DX002 (ip), vehicle: dextrose) 9 % of control.

Take `CNC(=O)ON(C(C)=O)C(=O)NC`: the T/C is 87 % of control and 106 % of control under setting [1]; 103 % of control under setting [2].

In the case of `O=C(CN1CCOCC1)Nc1nc(-c2ccc(Cl)cc2)cs1`, the T/C runs as follows: (dose: 50.0 mg/kg/injection, schedule: Q07DX002 (ip), vehicle: DMSO) 224 % of control; (dose: 100.0 mg/kg/injection, schedule: Q07DX002 (ip), vehicle: DMSO) 292 % of control; (dose: 200.0 mg/kg/injection, schedule: Q07DX002 (ip), vehicle: DMSO) 247 % of control; (dose: 400.0 mg/kg/injection, schedule: Q07DX002 (ip), vehicle: DMSO) 234 % of control.

On to `Nc1cc2c(c[n+](CCCCCCCC[n+]3cc4c5ccccc5c(N)cc4c4ccccc43)c3ccccc23)c2ccccc12`, for which the T/C was 108 % of control (dose: 7.5 mg/kg/injection, schedule: Q07DX002 (ip), vehicle: water); 82 % of control (dose: 15.0 mg/kg/injection, schedule: Q07DX002 (ip), vehicle: water); 94 % of control (dose: 30.0 mg/kg/injection, schedule: Q07DX002 (ip), vehicle: water); 53 % of control (dose: 60.0 mg/kg/injection, schedule: Q07DX002 (ip), vehicle: water).

As to `CCOC(=O)C1C2OC(=O)C(C(=O)C2CN(CCCl)CCCl)C1C1CC=C(CC2=CCC(C3C4C(=O)OC(C(CN(CCCl)CCCl)C4=O)C3C(=O)OCC)CC2)CC1` (stereo unspecified), the T/C reads like this: (dose: 12.5 mg/kg/injection, schedule: Q07DX003 (ip), vehicle: Klucel (hydroxypropylcellulose) (HPC)) 95 % of control; (dose: 25.0 mg/kg/injection, schedule: Q07DX003 (ip), vehicle: Klucel (hydroxypropylcellulose) (HPC)) 117 % of control; (dose: 50.0 mg/kg/injection, schedule: Q07DX003 (ip), vehicle: Klucel (hydroxypropylcellulose) (HPC)) 116 % of control; (dose: 100.0 mg/kg/injection, schedule: Q07DX003 (ip), vehicle: Klucel (hydroxypropylcellulose) (HPC)) 110 % of control; (dose: 200.0 mg/kg/injection, schedule: Q07DX003 (ip), vehicle: Klucel (hydroxypropylcellulose) (HPC)) 67 % of control.

In the case of `CC(C)=CCNc1ncnc2c1ncn2C1OC(CO)C(O)C1O` (stereo unspecified), the T/C runs as follows: (dose: 12.5 mg/kg/injection, schedule: Q07DX002 (ip), vehicle: saline with Tween-80) 61 % of control; under setting [3], 102 % of control; under setting [1], 89 % of control; (dose: 50.0 mg/kg/injection, schedule: Q07DX002 (ip), vehicle: saline with Tween-80) 96 % of control; (dose: 100.0 mg/kg/injection, schedule: Q07DX002 (ip), vehicle: saline with Tween-80) 44 % of control; under setting [2], 97 % of control. Where the note is “dose: 200.0 mg/kg/injection, schedule: Q07DX002 (ip), vehicle: saline with Tween-80”, the T/C was 75 % of control.

With `N=C(N)SCc1c2ccccc2c(CSC(=N)N)c2ccccc12`, the T/C is, setting by setting: (dose: 6.25 mg/kg/injection, schedule: Q07DX002 (ip), vehicle: suspension in saline) 63 % of control; under setting [3], 93 % of control and 100 % of control; (dose: 12.5 mg/kg/injection, schedule: Q07DX002 (ip), vehicle: suspension in saline) 92 % of control; (dose: 25.0 mg/kg/injection, schedule: Q07DX002 (ip), vehicle: suspension in saline) 83 % of control; under setting [4], 71 % of control and 89 % of control; (dose: 50.0 mg/kg/injection, schedule: Q07DX002 (ip), vehicle: suspension in saline) 64 % of control. The T/C was 115 % of control (dose: 100.0 mg/kg/injection, schedule: Q07DX002 (ip), vehicle: suspension in saline) and 97 % of control (dose: 200.0 mg/kg/injection, schedule: Q07DX002 (ip), vehicle: suspension in saline).

With `OCC1OC(n2cnc3c2NC=NC[C@H]3O)CC1O` (stereo partly specified), the T/C is 70 % of control (dose: 0.63 mg/kg/injection, schedule: Q07DX002 (ip), vehicle: saline); 83 % of control (dose: 1.25 mg/kg/injection, schedule: Q07DX002 (ip), vehicle: saline); 68 % of control (dose: 2.0 mg/kg/injection, schedule: Q07DX002 (ip), vehicle: saline); 43 % of control (dose: 2.5 mg/kg/injection, schedule: Q07DX002 (ip), vehicle: saline); 90 % of control under setting [5]; 67 % of control (dose: 8.0 mg/kg/injection, schedule: Q07DX002 (ip), vehicle: saline). Further, the T/C by setting is: under setting [6], 45 % of control; (dose: 16.0 mg/kg/injection, schedule: Q07DX002 (ip), vehicle: saline) 74 % of control.

With `O=C1NC2(CCCCC2)C(=O)N1CCN(CCCl)CCCl`, the T/C by setting is: (dose: 8.0 mg/kg/injection, schedule: Q07DX003 (ip), vehicle: Klucel (hydroxypropylcellulose) (HPC)) 60 % of control; (dose: 16.0 mg/kg/injection, schedule: Q07DX003 (ip), vehicle: Klucel (hydroxypropylcellulose) (HPC)) 69 % of control and 88 % of control; (dose: 32.0 mg/kg/injection, schedule: Q07DX003 (ip), vehicle: Klucel (hydroxypropylcellulose) (HPC)) 38 % of control and 62 % of control; (dose: 64.0 mg/kg/injection, schedule: Q07DX003 (ip), vehicle: Klucel (hydroxypropylcellulose) (HPC)) 28 % of control.

Regarding `O=C(O)C1CSCN1` (stereo unspecified), the T/C was 110 % of control (dose: 6.25 mg/kg/injection, schedule: Q07DX002 (ip), vehicle: saline); 106 % of control (dose: 6.25 mg/kg/injection, schedule: Q07DX002 (ip), vehicle: water); 98 % of control under setting [3]; 110 % of control under setting [1]; 114 % of control (dose: 25.0 mg/kg/injection, schedule: Q07DX002 (ip), vehicle: water); 105 % of control under setting [4]. Besides, the T/C by setting is: (dose: 50.0 mg/kg/injection, schedule: Q07DX002 (ip), vehicle: water) 87 % of control; under setting [2], 80 % of control.

Consider `CC(=O)OCC12CCC(C)=CC1OC1C(OS(C)(=O)=O)C(=O)C2(C)C12CO2` (stereo unspecified), for which the T/C runs as follows: (dose: 0.25 mg/kg/injection, schedule: Q07DX002 (ip), vehicle: saline) 189 % of control; under setting [5], 98 % of control; under setting [6], 88 % of control.

Regarding `O=c1cc[nH]c(=O)o1`, the T/C reads like this: (dose: 12.2 mg/kg/injection, schedule: Q01DX009 (ip), vehicle: water) 119 % of control; (dose: 18.5 mg/kg/injection, schedule: Q01DX009 (ip), vehicle: water) 75 % of control; (dose: 28.0 mg/kg/injection, schedule: Q01DX009 (ip), vehicle: water) 83 % of control.
